This passage reports IC50 and Activity results from ChEMBL document CHEMBL1153134, “Dammarane-type saponins from the flower buds of Panax ginseng and their effects on human leukemia cells” (Bioorg Med Chem Lett, 2010).

Activity calls are given as the source filed them. No cut-off for these calls is given here.

The test system of experiment [1] is HL-60. Nature of the experiment: Cytotoxicity against human HL60 cells by MTT assay. In kind it is functional, cell-based. (In general: Formazan colour is commonly taken as a measure of viable cells.)
For experiment [2], the system named is HL-60. Description: Induction of apoptosis in human HL60 cells assessed as DNA accumulation at sub-G1 phase at IC50 concentration after 24 hrs by flow cytometry. In kind it is functional. In general terms: In flow cytometry, cells or beads pass a laser one at a time.
Experiment [3] has as its system HL-60. Description: Induction of apoptosis in human HL60 cells assessed as increase of apoptotic bodies at IC50 concentration after 24 hrs using Hoechst 33342 staining by fluorescent microscopic analysis. In kind it is functional, cell-based.
Experiment [4] concerns HaCaT. Description: Inhibition of ultraviolet-B-induced apoptosis in human HaCaT cells. In kind it is functional, cell-based.

In the case of `CC(C)=CCC[C@](C)(O[C@@H]1O[C@H](CO)[C@@H](O)[C@H](O)[C@H]1O)[C@H]1CC[C@]2(C)[C@@H]1[C@H](O)C[C@@H]1[C@@]3(C)CC[C@H](O)C(C)(C)[C@@H]3[C@@H](O)C[C@]12C` [GINSENOSIDE F1], the IC50 (in general, the concentration needed to halve the response being measured) in experiment [1] came out at 23.2 µM. Further, the Activity in experiment [2] is reported as 19.2%. The outcome in experiment [3] and in experiment [4] was Active.
As for `O=C1c2c(O)ccc(O)c2C(=O)c2c(NCCNCCO)ccc(NCCNCCO)c21` [MITOXANTRONE], it took 6.8 µM to reach half-maximal inhibition in experiment [1] (IC50).
In experiment [1], `C=C(C)C(CC[C@](C)(O[C@@H]1O[C@H](CO[C@@H]2OC[C@H](O)[C@H](O)[C@H]2O)[C@@H](O)[C@H](O)[C@H]1O)[C@H]1CC[C@]2(C)[C@@H]1[C@H](O)C[C@@H]1[C@@]3(C)CC[C@H](O[C@@H]4O[C@H](CO[C@@H]5O[C@H](CO)[C@@H](O)[C@H](O)[C@H]5O)[C@@H](O)[C@H](O)[C@H]4O)C(C)(C)[C@@H]3[C@@H](O)C[C@]12C)OO` (some centres undefined) [FLORALGINSENOSIDE TC] returned an IC50 of 100 µM.
For `COC(CC[C@](C)(O[C@@H]1O[C@H](CO)[C@@H](O)[C@H](O)[C@H]1O)[C@H]1CC[C@]2(C)[C@@H]1[C@H](O)C[C@@H]1[C@@]3(C)CC[C@H](O)C(C)(C)[C@@H]3[C@@H](O)C[C@]12C)OC` [FLORALGINSENOSIDE TB], in experiment [1], the IC50 was found to be 100 µM.
Consider `CC(C)=CCC[C@](C)(O[C@@H]1O[C@H](CO[C@H]2O[C@H](CO)[C@@H](O)[C@@H]2O)[C@@H](O)[C@H](O)[C@H]1O)[C@H]1CC[C@]2(C)[C@@H]1[C@H](O)C[C@@H]1[C@@]3(C)CC[C@H](O)C(C)(C)[C@@H]3[C@@H](O)C[C@]12C` [GINSENOSIDE F5], for which the IC50 in experiment [1] was 62.4 µM. In experiment [2], the Activity stood at 21.4%. In addition, the result in experiment [3] was Active.
`C=C(C)C(CC[C@](C)(O[C@@H]1O[C@H](COC2OC[C@H](O)[C@H](O)[C@H]2O)[C@@H](O)[C@H](O)[C@H]1O)[C@H]1CC[C@]2(C)[C@@H]1[C@H](O)C[C@@H]1[C@@]3(C)CC[C@H](O[C@@H]4O[C@H](COC5O[C@H](CO)[C@@H](O)[C@H](O)[C@H]5O)[C@@H](O)[C@H](O)[C@H]4O)C(C)(C)[C@@H]3[C@@H](O)C[C@]12C)OO` (some centres undefined) [FLORALGINSENOSIDE TD] returned a 50% inhibitory concentration (IC50) in experiment [1] of 100 µM.
As to `C=C(C)C(=O)CC[C@](C)(O[C@@H]1O[C@H](CO)[C@@H](O)[C@H](O)[C@H]1O)[C@H]1CC[C@]2(C)[C@@H]1[C@H](O)C[C@@H]1[C@@]3(C)CC[C@H](O)C(C)(C)[C@@H]3[C@@H](O)C[C@]12C` [FLORALGINSENOSIDE TA], inhibition in experiment [1] was half-maximal at 36.3 µM (IC50). In experiment [2], the Activity is given as 29.8%. Moreover, the outcome in experiment [3] was Active.
